Patent US8895561B2, “Compounds and methods for treating candidiasis and aspergillus infections” (Cellceutix Corporation, priority 2012, dated 2014)
Values after ≈ are worked out from the molar mass of the structure shown. Read-outs that look alike come from different tables or passages of the source.

Tests used:
C. albicans GDH2346 = assay: Candida IC50, vegetative cells, by OD600 and fluorescence; format: cell-based; conditions: Candida albicans, GDH2346
Description: (§1) Candida IC50s were determined by OD600 and fluorescence from vegetative cells and by MTS viability assay in the hyphal state. MICs were determined using a broth microdilution assay under standard CLSI conditions Bacteria strains: E. coli 25922 (EC), S. aureus 27660 (SA), E. faecalis 29212 (EF), P. aeruginosa 10145 (PA), and K. pneumoniae 13883 (KP). Cytotoxicity (EC50) was determined against mouse 3T3 fibroblasts, human transformed liver HepG2 cells, and human oral keratinocyte cell line, OKF6/TERT using an MTS viability assay. Candida IC50s<10 μg/mL, MICs<5 μg/mL and cytotoxicity EC50s>100 μM are indicated in green. MICs>5 μg/mL and cytotoxicity EC50s<100 μM are indicated in red. Candida IC50s (CA) were determined by OD600 and fluorescence from vegetative cells. MICs were determined using a broth microdilution assay under standard CLSI conditions Bacteria strains: E. coli 25922 (EC), S. aureus 27660 (SA), E. faecalis 29212 (EF), P. aeruginosa 10145 (PA), and K. pneumoniae 13883 (KP). Cytotoxicity (EC50) was determined against mouse 3T3 fibroblasts and human transformed liver HepG2 cells using an MTS viability assay. For determination of anti-Candida IC50s, the method was modified by using RPMI/MOPS buffer pH 6.3 and by addition of FDGlu, a substrate for the yeast enzyme exoglucanase which is secreted during cell growth. This provides a fluorescent readout for cell growth which was used in addition to the traditional optical density measure of growth. OD600 and fluorescence were determined at 24 and 48 hours and the average of all 4 reads was used for the final IC50 determination.

E. coli 25922 = assay: Bacterial MIC, broth microdilution, CLSI; format: cell-based; conditions: Escherichia coli, 25922; read-out: EC (MIC)
Description: as §1, with “assay.” for “assay. For determination of anti-Candida IC50s, the method was modified by using RPMI/MOPS buffer pH 6.3 and by addition of FDGlu, a substrate for the yeast enzyme exoglucanase which is secreted during cell growth. This provides a fluorescent readout for cell growth which was used in addition to the traditional optical density measure of growth. OD600 and fluorescence were determined at 24 and 48 hours and the average of all 4 reads was used for the final IC50 determination.”

E. faecalis 29212 = assay: Bacterial MIC, broth microdilution, CLSI; format: cell-based; conditions: Enterococcus faecalis, 29212; read-out: EF (MIC)
Description: as §1, with “assay.” for “assay. For determination of anti-Candida IC50s, the method was modified by using RPMI/MOPS buffer pH 6.3 and by addition of FDGlu, a substrate for the yeast enzyme exoglucanase which is secreted during cell growth. This provides a fluorescent readout for cell growth which was used in addition to the traditional optical density measure of growth. OD600 and fluorescence were determined at 24 and 48 hours and the average of all 4 reads was used for the final IC50 determination.”

P. aeruginosa 10145 = assay: Bacterial MIC, broth microdilution, CLSI; format: cell-based; conditions: Pseudomonas aeruginosa, 10145; read-out: PA (MIC)
Description: as §1, with “assay.” for “assay. For determination of anti-Candida IC50s, the method was modified by using RPMI/MOPS buffer pH 6.3 and by addition of FDGlu, a substrate for the yeast enzyme exoglucanase which is secreted during cell growth. This provides a fluorescent readout for cell growth which was used in addition to the traditional optical density measure of growth. OD600 and fluorescence were determined at 24 and 48 hours and the average of all 4 reads was used for the final IC50 determination.”

S. aureus 27660 = assay: Bacterial MIC, broth microdilution, CLSI; format: cell-based; conditions: Staphylococcus aureus, 27660; read-out: SA (MIC)
Description: as §1, with “assay.” for “assay. For determination of anti-Candida IC50s, the method was modified by using RPMI/MOPS buffer pH 6.3 and by addition of FDGlu, a substrate for the yeast enzyme exoglucanase which is secreted during cell growth. This provides a fluorescent readout for cell growth which was used in addition to the traditional optical density measure of growth. OD600 and fluorescence were determined at 24 and 48 hours and the average of all 4 reads was used for the final IC50 determination.”

[1] = Cytotoxicity, MTS viability assay; format: cell-based, human
Description: Candida IC50s were determined by OD600 and fluorescence from vegetative cells and by MTS viability assay in the hyphal state. MICs were determined using a broth microdilution assay under standard CLSI conditions Bacteria strains: E. coli 25922 (EC), S. aureus 27660 (SA), E. faecalis 29212 (EF), P. aeruginosa 10145 (PA), and K. pneumoniae 13883 (KP). Cytotoxicity (EC50) was determined against mouse 3T3 fibroblasts, human transformed liver HepG2 cells, and human oral keratinocyte cell line, OKF6/TERT using an MTS viability assay. Candida IC50s<10 μg/mL, MICs<5 μg/mL and cytotoxicity EC50s>100 μM are indicated in green. MICs>5 μg/mL and cytotoxicity EC50s<100 μM are indicated in red.
Candida IC50s (CA) were determined by OD600 and fluorescence from vegetative cells. MICs were determined using a broth microdilution assay under standard CLSI conditions Bacteria strains: E. coli 25922 (EC), S. aureus 27660 (SA), E. faecalis 29212 (EF), P. aeruginosa 10145 (PA), and K. pneumoniae 13883 (KP). Cytotoxicity (EC50) was determined against mouse 3T3 fibroblasts and human transformed liver HepG2 cells using an MTS viability assay.
CLSI conditions Bacteria strains: clinical isolates; yeast strains: C. dubliniensis (NCPF3949), C. glabrata (ATCC 90030), C. krusei (ATCC 6258), C. parapsilosis (ATCC 22019), and C. tropicalis (ATCC 750). Cytotoxicity (EC50) was determined against mouse 3T3 fibroblasts, human transformed liver HepG2 cells, and human oral keratinocyte cell line, OKF6/TERT using an MTS viability assay.

[2] = test system: C. albicans GDH2346 hyphal biofilm; assay: Candida IC50 in the hyphal state / hyphal biofilm, MTS viability assay; format: cell-based; conditions: Candida albicans, 48 h; 2-day hyphal biofilm cultures; read-out: Anti-C. albicans GDH2346 Hyphal (IC50)
Description: Candida IC50s were determined by OD600 and fluorescence from vegetative cells and by MTS viability assay in the hyphal state. MICs were determined using a broth microdilution assay under standard CLSI conditions Bacteria strains: E. coli 25922 (EC), S. aureus 27660 (SA), E. faecalis 29212 (EF), P. aeruginosa 10145 (PA), and K. pneumoniae 13883 (KP). Cytotoxicity (EC50) was determined against mouse 3T3 fibroblasts, human transformed liver HepG2 cells, and human oral keratinocyte cell line, OKF6/TERT using an MTS viability assay. Candida IC50s<10 μg/mL, MICs<5 μg/mL and cytotoxicity EC50s>100 μM are indicated in green. MICs>5 μg/mL and cytotoxicity EC50s<100 μM are indicated in red. To form the biofilm, yeast were grown in RPMI/MOPS, 0.4% sucrose pH7.4 media supplemented with 10% FBS in tissue culture-treated flat bottom 96 well plates for 48 hours. The filamentous yeast cultures were then vigorously washed to remove any non-filamentous, non-attached yeast. The remaining attached filamentous biofilm yeast were incubated in saline containing serially diluted compounds for 24 hours. The cultures were aspirated to remove compound, rinsed and overlayed with RPMI/MOPS, 0.4% sucrose pH7.4 media. Biofilm viability was measured using a cell proliferation assay (CellTiter96 Aqueous Kit from Promega) and IC50s were determined using Prism GraphPad software (nonlinear fit, Table 3).

[3] = vegetative cells, read-out: CA (Candida IC50)
[4] = human, HepG2 cells (transformed liver), read-out: HepG2 (cytotoxicity EC50)
[5] = mouse, 3T3 fibroblasts, read-out: 3T3 (cytotoxicity EC50)

Row | IC50 (C. albicans GDH2346; [3]) [µg/mL] | MIC (E. coli 25922) [µg/mL] | MIC (E. faecalis 29212) [µg/mL] | MIC (P. aeruginosa 10145) [µg/mL] | MIC (S. aureus 27660) [µg/mL] | IC50 (C. albicans GDH2346; vegetative cultures, read-out: Anti-C. albicans GDH2346 Vegetative (IC50)) [µg/mL] | IC50 [2] [µg/mL] | SMILES | EC50 [1, 4] [µM] | EC50 [1, 5] [µM]
1 | 11.8 (≈ 21.5 µM) | 1.56 (≈ 2.84 µM) | > 50 | 50 (≈ 91.1 µM) | 6.25 (≈ 11.4 µM) |  |  | NCCCn1c2cc(-c3cc(CCN)cc(CCN)c3)ccc2c2ccc(-c3cc(CCN)cc(CCN)c3)cc21 [Compound 161] | 466 | 356
2 | 3.12 (≈ 4.11 µM) | 1.56 (≈ 2.06 µM) | 12.5 (≈ 16.5 µM) | 3.13 (≈ 4.12 µM) | 0.39 (≈ 0.514 µM) |  |  | N=C(N)NCCCn1c2cc(-c3cc(CCNC(=N)N)cc(CCNC(=N)N)c3)ccc2c2ccc(-c3cc(CCNC(=N)N)cc(CCNC(=N)N)c3)cc21 [Compound 162] | 273 | 49
3 | 1.79 (≈ 2.04 µM) | 3.13 (≈ 3.56 µM) | 3.13 (≈ 3.56 µM) | 50 (≈ 56.9 µM) | 3.13 (≈ 3.56 µM) |  |  | N=C(N)NCCCOc1cc(OCCCNC(=N)N)cc(-c2ccc3c(c2)c2cc(-c4cc(OCCCNC(=N)N)cc(OCCCNC(=N)N)c4)ccc2n3CCCNC(=N)N)c1 [Compound 163] | 113 | 31
4 |  |  |  |  |  | 4.88 (≈ 9.34 µM) | 11 (≈ 21.1 µM) | NCCc1cc(Br)cc(C#Cc2cccc(C#Cc3cc(Br)cc(CCN)c3)c2)c1 [Compound 164] |  | 

The next lines start with the molecule.

Row | SMILES | IC50 (C. albicans GDH2346; [3]) [µg/mL] | MIC (E. coli 25922) [µg/mL] | MIC (E. faecalis 29212) [µg/mL] | MIC (P. aeruginosa 10145) [µg/mL] | MIC (S. aureus 27660) [µg/mL] | IC50 (C. albicans GDH2346; vegetative cultures, read-out: Anti-C. albicans GDH2346 Vegetative (IC50)) [µg/mL] | IC50 [2] [µg/mL] | EC50 [1, 4] [µM] | EC50 [1, 5] [µM]
5 | NCCCn1c2cc(-c3cccc(O)c3)ccc2c2ccc(-c3cccc(O)c3)cc21 [Compound 149] | > 100 | 3.13 (≈ 7.66 µM) | 1.56 (≈ 3.82 µM) | > 100 | 0.049 (≈ 0.12 µM) |  |  | 20 | 29
6 | NCCCOc1cccc(-c2ccc3c4ccc(-c5cccc(OCCCN)c5)cc4n(CCCN)c3c2)c1 [Compound 150] | 3.34 (≈ 6.39 µM) | 0.78 (≈ 1.49 µM) | 1.56 (≈ 2.98 µM) | 3.13 (≈ 5.99 µM) | 0.049 (≈ 0.0937 µM) |  |  | 58 | 54
7 | NCCCn1c2cc(-c3cccc(OCCN)c3)ccc2c2ccc(-c3cccc(OCCN)c3)cc21 [Compound 151] | 3.85 (≈ 7.78 µM) | 3.13 (≈ 6.33 µM) | 6.25 (≈ 12.6 µM) | 6.25 (≈ 12.6 µM) | 0.195 (≈ 0.394 µM) |  |  | 78 | 56
8 | NCCCOc1ccc(-c2ccc3c4ccc(-c5ccc(OCCCN)cc5)cc4n(CCCN)c3c2)cc1 [Compound 152] | 3.77 (≈ 7.21 µM) | 1.56 (≈ 2.98 µM) | 1.56 (≈ 2.98 µM) | 3.13 (≈ 5.99 µM) | 0.39 (≈ 0.746 µM) |  |  | 12 | 34
9 | NCCN(CCN)c1cccc(-c2ccc3[nH]c4ccc(-c5cccc(N(CCN)CCN)c5)cc4c3c2)c1 [Compound 156] | 1.94 (≈ 3.72 µM) | 1.56 (≈ 2.99 µM) | > 50 | 12.5 (≈ 24 µM) | 1.56 (≈ 2.99 µM) |  |  | > 1000 | 487
10 | NCCN(CCN)Cc1cccc(-c2ccc3[nH]c4ccc(-c5cccc(CN(CCN)CCN)c5)cc4c3c2)c1 [Compound 158] | 17.5 (≈ 31.8 µM) | 1.56 (≈ 2.84 µM) | > 50 | 25 (≈ 45.5 µM) | 1.56 (≈ 2.84 µM) |  |  | 615 | 179
11 | N=C(N)NCCCn1c2cc(-c3ccc(CCNC(=N)N)c(CCNC(=N)N)c3)ccc2c2ccc(-c3ccc(CCNC(=N)N)c(CCNC(=N)N)c3)cc21 [Compound 160] | 1.48 (≈ 1.95 µM) | 1.56 (≈ 2.06 µM) | 3.13 (≈ 4.12 µM) | 6.25 (≈ 8.23 µM) | 1.95 (≈ 2.57 µM) |  |  | 28 | 28
